In patent publication US20060210627A1, “Direct compression formulation and process” (priority 2005, published 2006):
Blank lines part the entries; values can stand above or below the compound they belong to.

Legend:
[1] = Water sorption/desorption isotherm (dynamic vapor sorption, DVS-1); format: physicochemical; details: 25° C.; for moisture gain: at 85% RH
Method: Measurements were carried out at 25° C.

[2] = Pharmacokinetic drug-drug interaction study of vildagliptin 100 mg qd and metformin 1000 mg qd in patients with type 2 diabetes; format: in vivo; details: human, plasma, single oral dose of 100 mg, concomitantly with 1000 mg of metformin
Method: Subjects are given an end-of-study evaluation on the last day of period 2 (Day 20). For all treatment periods, subjects fasted for a minimum of 10 hours pre-dose to 4 hours post-dose. Subjects are considered to have completed the study when all safety and pharmacokinetic evaluations have been completed.
The pharmacokinetic profiles are illustrated in FIG. 5.

clinical [3] = details: human, plasma, po
[4] = Water solubility (statement); format: physicochemical
clinical [5] = details: human, plasma, po; remark: listed apart in the source

hygroscopicity [1]: hygroscopic
moisture gain [1]: 4.2%
SMILES: N#C[C@@H]1CCCN1C(=O)CNC12CC3CC(CC(O)(C3)C1)C2 [vildagliptin amorphous form]

hygroscopicity [1]: only very slightly hygroscopic
moisture gain [1]: 0.9%
SMILES: N#C[C@@H]1CCCN1C(=O)CNC12CC3CC(CC(O)(C3)C1)C2 [Crystalline vildagliptin Form A, 1-[(3-Hydroxy-adamant-1-ylamino)-acetyl]-pyrrolidine-2(S)-carbonitrile]

AUC(0-t) [2]: 1840 ng·h/mL
Tmax [2]: 2.5 h
AUC(0-inf) (clinical [3]; 25 mg): 461 ± 91 ng·h/mL
AUC(0-t) (clinical [3]; 25 mg): 453 ± 91 ng·h/mL
Cmax (clinical [3]; 25 mg): 117 ± 41 ng/mL
Tmax (clinical [3]; 25 mg, tmax (h) median (min, max), single oral 25 mg FMI tablet, healthy volunteers): 1.5 h
AUC(0-inf) (clinical [3]; 50 mg): 1030 ng·h/mL
AUC(0-t) (clinical [3]; 50 mg): 1020 ± 193 ng·h/mL
Cmax (clinical [3]; 50 mg): 245 ± 87 ng/mL
Tmax (clinical [3]; 50 mg, arithmetic mean tmax of vildagliptin, single oral dose of 50 mg, healthy human subject): 2.1 h
Tmax (clinical [3]; 50 mg, tmax (h) median (min, max), single oral 50 mg FMI tablet, healthy volunteers): 1.5 h
AUC(0-inf) (clinical [3]; 100 mg): 2350 ng·h/mL
AUC(0-t) (clinical [3]; 100 mg): 2330 ± 278 ng·h/mL
Tmax (clinical [3]; 100 mg, arithmetic mean tmax of vildagliptin, single oral dose of 100 mg, healthy human subject): 2 h
Tmax (clinical [3]; 100 mg, tmax (h) median (min, max), single oral 100 mg FMI tablet, healthy volunteers): 1.75 h
AUC(0-inf) (clinical [3]; 200 mg): 5080 ± 721 ng·h/mL
AUC(0-t) (clinical [3]; 200 mg): 5060 ± 722 ng·h/mL
Cmax (clinical [3]; 200 mg): 1100 ± 280 ng/mL
Tmax (clinical [3]; 200 mg, tmax (h) median (min, max), single oral 200 mg FMI tablet, healthy volunteers): 1.25 h
water solubility [4]: highly water soluble
Tmax (clinical [5]): 1 h
SMILES: N#C[C@@H]1CCCN1C(=O)CNC12CC3CC(CC(O)(C3)C1)C2 [vildagliptin, (S)-1-[(3-hydroxy-1-adamantyl)amino]acetyl-2-cyano-pyrrolidine]
